Test results: US12552796B2, “EED inhibitor, and preparation method therefor and use thereof” (SHANGHAITECH UNIVERSITY, priority 2019, dated 2026)

Assays:
[1] = test system: cellular H3K27 methylation; assay: Cellular H3K27 methylation assay (Western blot of H3K27me3 in HeLa cells); assay type: cell-based; conditions: Homo sapiens, 72 h; HeLa cells, 3 days, H3K27me3 level by Western blot; read-out: PD IC50
WSU-DLCL2 cells = assay: Cell proliferation assay, WSU-DLCL2; assay type: cell-based; conditions: Homo sapiens, WSUDLCL2; WSU-DLCL2 cells, cultured to the 9th day; read-out: Anti-proliferation IC50
Procedure: (§1) Human B-cell non-Hodgkin's lymphoma cells WSU-DLCL2, Karpas422 and Pfeiffer were cultured in cell culture flasks in a sterile incubator with 95% relative humidity and 5% CO2 at 37° C. The medium was RPMI-1640 (Gibco, product No. 31800022) containing 15% fetal bovine serum (FBS, Gibco, product No. 10099141) and 0.1% penicillin/streptomycin solution (P/S). In order to assay the effects of compounds on cell proliferation, cells in exponential growth phase were seeded into a 12-well plate (Nunc, product No. 150628) with 1 mL of medium per well, wherein WSU-DLCL2 and Karpas422 were seeded at a density of 1×10^5 cells/well, and Pfeiffer was seeded at a density of 2×10^5 cells/well. At the same time, different concentrations of compounds were added to the wells that had seeded with cells (6 concentrations were set for each compound at 3-fold serial dilution), and the final concentration of DMSO was 0.1%. After that, the number of viable cells was determined by Vi-CELL (Beckman Coulter) for WSU-DLCL2 and Pfeiffer every 3 days, and for Karpas422 on days 4, 7, and 11, respectively. The cells counted each time were seeded into a new 12-well plate at the same density, and supplemented with fresh medium to 1 mL. Different concentrations of compounds were added at the same time. WSU-DLCL2 and Pfeiffer were cultured to the 9th day, and Karpas422 was cultured to the 14th day. Cell data were collected uniformly, and analyzed with GraphPad prisim5. Dose curves were fitted, and IC50 values of the assay compounds were obtained.

Karpas422 cells = assay: Cell proliferation assay, Karpas422; assay type: cell-based; conditions: Homo sapiens, KARPAS-422; Karpas422 cells, cultured to the 14th day; read-out: Anti-proliferation IC50
Procedure: as §1

Pfeiffer cells = assay: Cell proliferation assay, Pfeiffer; assay type: cell-based; conditions: Homo sapiens, cultured to the 9th day, read-out: Anti-proliferation IC50
Procedure: as §1

[2] = Pharmacokinetic study in rats; assay type: in vivo, SD rats; conditions: rat; for AUC(0-inf) / Cmax / Tmax / clearance / half-life / MRT inf: male, SD, plasma; for MRT inf: read-out: MRT0-∞
Procedure: Six SPF SD rats, male, weighing 180-220 g, were randomly divided into 2 groups with 3 rats in each group. The compounds of the present disclosure were administered by oral gavage (PO) and intravenous injection (IV), respectively, and the assay compounds were formulated with a vehicle (5% DMSO+10% Solutol+85% pH 4.65 Acetate buffer).
Dosage: 1 mg/kg for intravenous injection and 2 mg/kg for oral administration.
(§2) Dosing volume: 5 mL/kg for intravenous injection and 10 mL/kg for oral administration.
(§3) The oral administration group was fasted overnight (10-14 h) before the assay, and drank water freely. After 4 hours of administration, they were fed uniformly. They were weighed before administration, and the dosage was calculated according to the body weight.
Intravenous administration: 0.083, 0.25, 0.5, 1, 2, 4, 6, 8, 10 and 24 h after administration;
Oral gavage administration: 0.25, 0.5, 1, 2, 4, 6, 8, 10, 12 and 24 h after administration;
(§4) Blood was collected from the jugular vein of rats at the above set time points, about 0.2 mL each time. The blood was anticoagulated with heparin sodium, placed on ice after collection, and centrifuged within 1 hour to separate the plasma (centrifugation conditions: 6800 g, 6 minutes, 2-8° C.). Plasma samples were stored in a −80° C. freezer prior to analysis.
The concentration of each compound in rat plasma was determined by LC/MS/MS method.
(§5) Through the plasma drug concentration data at different time points, pharmacokinetic parameters were calculated using Phoenix WinNonlin 7.0, thereby providing parameters such as AUC0-t, AUC0-∞, MRT0-∞, Cmax, Tmax, and T1/2 and mean and standard deviation thereof.

[3] = Pharmacokinetic study in canine; assay type: in vivo, Beagle dogs; conditions: Beagle dog; for AUC(0-inf) / Cmax / Tmax / clearance / half-life / MRT inf: male, plasma; for MRT inf: read-out: MRT0-∞
Procedure: Six ordinary Beagle dogs, male, weighing 10-12 kg, were randomly divided into 2 groups with 3 dogs in each group. The compounds of the present disclosure were administered by oral gavage (PO) and intravenous injection (IV), respectively, and the assay compounds were formulated with the corresponding vehicles.
Dosage: 1 mg/kg for intravenous injection and 5 mg/kg for oral administration.
as §2
as §3, with “weight. 2. Blood collection time point and sample processing:” for “weight.”
Intravenous administration: 0.083, 0.25, 0.5, 1, 2, 4, 8, 12 and 24 h after administration;
Oral gavage administration: 0.25, 0.5, 1, 2, 4, 6, 8, 12 and 24 h after administration;
as §4, with “veins” for “jugular vein”, “extremities,” for “rats at the above set time points,”, “0.5-1” for “0.2”
The concentration of each compound in canine plasma was determined by LC/MS/MS method.
as §5

[4] = test system: Karpas 422 human B-cell lymphoma cells; assay: Mouse Karpas422 CDX model, tumor growth; assay type: in vivo, balb/c nude mice; conditions: Karpas422 CDX mice; for tumor growth inhibition (TGI %), Day 11 after administration / tumor growth inhibition (TGI %), Day 21 after administration: intragastric; for effect on tumor growth (FIG. 1): different dosages
Procedure: Female balb/c nude mice aged 6-8 weeks were selected and housed under SPF conditions (i.e., 20-22° C.; 40-70% relative humidity) in individual ventilated cages at constant temperature and humidity. There were 5 or fewer animals in each cage. Animals had access to dry pelleted food sterilized by irradiation and sterile drinking water. Karpas 422 human B-cell lymphoma cells were cultured in RPMI-1640 (Gibco, product No. 31800022) containing 15% fetal bovine serum (FBS, Gibco, product No. 10099141) and 0.1% penicillin/streptomycin solution (P/S). The cells were cultured in a sterile incubator at a temperature of 37° C., a relative humidity of 95%, and 5% CO2. Karpas 422 cells cultured in vitro were maintained at a concentration between 0.5-2×10^6 cells/mL cells in suspension culture and passaged at a 1:3 dilution every 2-4 days. To establish the xenograft model, cells were collected, resuspended in PBS, mixed 1:1 by volume with Matrigel (BD) at a concentration of 5×10^7 cells/mL, and then injected subcutaneously into the right side of balb/c nude mice (Vital River) with 5×10^6 cells per animal. When tumors grew to about 150 mm^3, mice were divided into groups with 6 mice in each group. The mice were administered intragastrically, and the tumor size and mouse body weight were measured twice a week. The two largest diameters of the transplanted tumor, width (W) and length (L), were manually measured with a vernier caliper, and the tumor volume was estimated using the formula: 0.5×L×W^2. After the assay, the mice were euthanized.
The assay compounds were prepared as a suspension in pure water containing 0.5% HPMC+0.5% Tween 80 as a solvent. The dosing volume was 10 mL/kg.
In this study, changes in mouse tumor volume and relative changes in mouse body weight were assayed, and the results were shown in FIGS. 1 and 2.

Row | IC50 [1] | IC50 (Karpas422 cells) | AUC(0-inf) ([2]; IV, 1 mg/kg) | Cmax ([2]; IV, 1 mg/kg) | Tmax ([2]; IV, 1 mg/kg) | clearance ([2]; IV, 1 mg/kg) | half-life ([2]; IV, 1 mg/kg) | MRT inf ([2]; IV, 1 mg/kg) | AUC(0-inf) ([2]; PO, 2 mg/kg) | Cmax ([2]; PO, 2 mg/kg) | Tmax ([2]; PO, 2 mg/kg) | half-life ([2]; PO, 2 mg/kg) | MRT inf ([2]; PO, 2 mg/kg) | F ([2]; PO, 2 mg/kg) | F ([3]; PO, 5 mg/kg) | AUC(0-inf) ([3]; IV, 1 mg/kg) | Cmax ([3]; IV, 1 mg/kg) | Tmax ([3]; IV, 1 mg/kg) | Compound | IC50 (WSU-DLCL2 cells) | IC50 (Pfeiffer cells) | also measured
1 | 34.7 nM | 74.9 nM | 2060 ng·h/mL | 932 ng/mL | 0.08 h | 8.24 mL/min/kg | 2.33 h | 2.94 h | 3900 ng·h/mL | 482 ng/mL | 4 h | 2.8 h | 5.58 h | 98.86% | 62.50% | 8840 ng·h/mL | 1220 ng/mL | 0.08 h | Fc1ccc2c(c1CNc1ncc(OC3CCOCC3)c3nncn13)CCO2 [HJM-016] | 86.4 nM | 55.7 nM | clearance ([3]; IV, 1 mg/kg): 1.92 mL/min/kg; half-life ([3]; IV, 1 mg/kg): 5.87 h; MRT inf ([3]; IV, 1 mg/kg): 8.39 h; AUC(0-inf) ([3]; PO, 5 mg/kg): 27200 ng·h/mL; Cmax ([3]; PO, 5 mg/kg): 2900 ng/mL; Tmax ([3]; PO, 5 mg/kg): 2 h; half-life ([3]; PO, 5 mg/kg): 5.18 h; MRT inf ([3]; PO, 5 mg/kg): 7.97 h; tumor growth inhibition (TGI %), Day 11 after administration ([4]; 30 mg/kg): 8.5%; tumor growth inhibition (TGI %), Day 21 after administration ([4]; 30 mg/kg): 56.1%; tumor growth inhibition (TGI %), Day 11 after administration ([4]; 100 mg/kg): 52.3%; tumor growth inhibition (TGI %), Day 21 after administration ([4]; 100 mg/kg): 105.39%; effect on tumor growth (FIG. 1) [4]: complete tumor disappearance
2 | 13 nM | 13.5 nM | 639 ng·h/mL | 794 ng/mL | 0.08 h | 26.4 mL/min/kg | 1.17 h | 1.06 h | 628 ng·h/mL | 119 ng/mL | 2.83 h | 1.46 h | 3.51 h | 48.40% | 90.95% | 4500 ng·h/mL | 1150 ng/mL | 0.08 h | CN(C(=O)C1CC1)c1cnc(NCc2c(F)ccc3c2CCO3)n2cnnc12 [HJM-045] | 9.2 nM | 10.5 nM | clearance ([3]; IV, 1 mg/kg): 3.7 mL/min/kg; half-life ([3]; IV, 1 mg/kg): 4.13 h; MRT inf ([3]; IV, 1 mg/kg): 5.35 h; AUC(0-inf) ([3]; PO, 5 mg/kg): 20700 ng·h/mL; Cmax ([3]; PO, 5 mg/kg): 3700 ng/mL; Tmax ([3]; PO, 5 mg/kg): 0.5 h; half-life ([3]; PO, 5 mg/kg): 4.29 h; MRT inf ([3]; PO, 5 mg/kg): 5.75 h; tumor growth inhibition (TGI %), Day 11 after administration ([4]; 30 mg/kg): 0.25%; tumor growth inhibition (TGI %), Day 21 after administration ([4]; 30 mg/kg): 60.06%; tumor growth inhibition (TGI %), Day 11 after administration ([4]; 100 mg/kg): 10.7%; tumor growth inhibition (TGI %), Day 21 after administration ([4]; 100 mg/kg): 81.43%; effect on tumor growth (FIG. 1) [4]: complete tumor disappearance
3 | 52.7 nM | 102 nM | 1980 ng·h/mL | 1360 ng/mL | 0.08 h | 8.47 mL/min/kg | 2.7 h | 2.37 h | 3470 ng·h/mL | 586 ng/mL | 3.33 h | 2.21 h | 4.43 h | 89.41% | 102.43% | 3230 ng·h/mL | 864 ng/mL | 0.08 h | Fc1ccc2c(c1CNc1ncc(OCC3COC3)c3nncn13)CCO2 [HJM-104] | 29.6 nM | 81.6 nM | clearance ([3]; IV, 1 mg/kg): 5.9 mL/min/kg; half-life ([3]; IV, 1 mg/kg): 1.67 h; MRT inf ([3]; IV, 1 mg/kg): 2.86 h; AUC(0-inf) ([3]; PO, 5 mg/kg): 16500 ng·h/mL; Cmax ([3]; PO, 5 mg/kg): 3380 ng/mL; Tmax ([3]; PO, 5 mg/kg): 1 h; half-life ([3]; PO, 5 mg/kg): 2.09 h; MRT inf ([3]; PO, 5 mg/kg): 3.53 h; tumor growth inhibition (TGI %), Day 11 after administration ([4]; 30 mg/kg): 39.4%; tumor growth inhibition (TGI %), Day 21 after administration ([4]; 30 mg/kg): 93.29%; tumor growth inhibition (TGI %), Day 11 after administration ([4]; 100 mg/kg): 88.9%; tumor growth inhibition (TGI %), Day 21 after administration ([4]; 100 mg/kg): 111.9%; effect on tumor growth (FIG. 1) [4]: complete tumor disappearance
